The target of experiment [1] is T1, Trypsin (Bos taurus, UniProt P00760).
T1 sequence (P00760 24-246): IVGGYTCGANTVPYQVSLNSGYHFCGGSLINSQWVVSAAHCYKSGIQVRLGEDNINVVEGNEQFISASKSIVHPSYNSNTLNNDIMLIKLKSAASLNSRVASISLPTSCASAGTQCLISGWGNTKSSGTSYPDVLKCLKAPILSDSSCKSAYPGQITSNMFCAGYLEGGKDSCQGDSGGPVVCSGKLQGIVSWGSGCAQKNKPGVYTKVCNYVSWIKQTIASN
The experiment in a line: anti-trypsin activity (hydrolysis of TAME). It is filed as biochemical. Particulars: read-out: ID50 Trypsin. The procedure:
(§1) The anti-trypsin, anti-plasmin, anti-kallikrein and anti-thrombin activities were determined according to the method of Muramatsu et al. [M. Muramatsu, T. Onishi, S. Makino, Y. Hayashi and S. Fujii, J. of Biochem., 58, 214 (1965)]. […] The compound No. corresponds to the compound number shown in Examples.

The target in experiment [2] is Plasmin (Homo sapiens, UniProt P00747). The experiment in a line: anti-plasmin activity (hydrolysis of TAME). It is filed as biochemical. The settings on record: for pIC50: TAME hydrolysis, read-out: ID50 Plasmin; for inhibition at 10 µM: at 1×10^-5 M, figure in parentheses, read-out: percentage inhibition Plasmin. How it is done: as §1
Sequence of Plasmin (P00747 581-810 limits assumed, species assumed): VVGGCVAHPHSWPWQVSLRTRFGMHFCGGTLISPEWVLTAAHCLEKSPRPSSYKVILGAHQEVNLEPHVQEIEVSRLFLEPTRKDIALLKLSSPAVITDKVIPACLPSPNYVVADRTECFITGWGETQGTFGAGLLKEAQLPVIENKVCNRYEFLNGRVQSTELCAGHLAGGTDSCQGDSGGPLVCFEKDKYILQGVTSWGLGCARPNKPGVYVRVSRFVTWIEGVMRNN
Sequence of Plasmin (P00747 97-580 limits assumed, species assumed): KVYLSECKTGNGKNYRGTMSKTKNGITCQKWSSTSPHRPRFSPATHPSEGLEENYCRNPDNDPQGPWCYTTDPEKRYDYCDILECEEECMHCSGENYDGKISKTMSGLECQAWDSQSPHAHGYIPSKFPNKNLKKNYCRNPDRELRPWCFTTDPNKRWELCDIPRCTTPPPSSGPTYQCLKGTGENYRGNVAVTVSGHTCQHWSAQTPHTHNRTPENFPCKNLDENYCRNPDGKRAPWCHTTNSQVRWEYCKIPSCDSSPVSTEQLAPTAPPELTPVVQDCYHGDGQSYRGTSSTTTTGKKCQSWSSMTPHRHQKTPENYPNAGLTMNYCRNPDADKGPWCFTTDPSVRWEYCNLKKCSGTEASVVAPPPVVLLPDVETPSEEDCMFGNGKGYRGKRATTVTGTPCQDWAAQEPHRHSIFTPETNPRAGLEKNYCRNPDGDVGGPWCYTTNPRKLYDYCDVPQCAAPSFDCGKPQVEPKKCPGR
The test system of experiment [3] is Kallikrein. The experiment is described as follows: anti-kallikrein activity (hydrolysis of TAME). In kind it is biochemical. The settings on record: for pIC50: TAME hydrolysis, read-out: ID50 Kallikrein; for percentage inhibition Kallikrein: at 1×10^-5 M, figure in parentheses. How it is done:
as §1

The target in experiment [4] is Thrombin (Homo sapiens, UniProt P00734). The experiment is described as follows: biochemical. Particulars: for inhibition at 10 µM: at 1×10^-5 M, figure in parentheses, read-out: percentage inhibition Thrombin; for pIC50: read-out: ID50 Thrombin.
Experiment [5] deals with T2, C1r (Homo sapiens, UniProt P00736).
T2 sequence (P00736 464-705 limits assumed): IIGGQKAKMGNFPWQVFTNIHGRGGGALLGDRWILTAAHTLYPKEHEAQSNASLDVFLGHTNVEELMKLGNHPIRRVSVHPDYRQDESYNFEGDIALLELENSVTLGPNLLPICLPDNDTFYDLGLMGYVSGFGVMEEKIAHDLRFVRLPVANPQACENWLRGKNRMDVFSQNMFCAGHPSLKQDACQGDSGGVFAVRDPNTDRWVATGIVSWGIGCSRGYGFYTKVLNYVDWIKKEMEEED
T2 sequence (P00736 18-463 limits assumed): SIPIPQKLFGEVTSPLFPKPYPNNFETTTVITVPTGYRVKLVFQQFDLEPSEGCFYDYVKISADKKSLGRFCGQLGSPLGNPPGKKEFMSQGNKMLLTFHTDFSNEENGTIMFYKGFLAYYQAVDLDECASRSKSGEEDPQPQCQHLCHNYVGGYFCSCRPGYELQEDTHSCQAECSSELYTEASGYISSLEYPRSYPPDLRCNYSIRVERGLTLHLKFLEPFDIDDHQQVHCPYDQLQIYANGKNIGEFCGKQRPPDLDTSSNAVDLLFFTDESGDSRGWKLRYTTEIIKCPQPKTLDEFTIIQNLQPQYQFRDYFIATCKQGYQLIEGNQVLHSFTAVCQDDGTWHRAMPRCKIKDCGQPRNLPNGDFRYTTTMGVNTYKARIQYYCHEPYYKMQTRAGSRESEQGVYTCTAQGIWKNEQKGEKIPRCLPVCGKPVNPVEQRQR
The experiment in a line: anti-C1 esterase (C1r) activity (hydrolysis of AAME). In kind it is biochemical. Particulars: for pIC50: AAME hydrolysis, read-out: ID50 C1r; for inhibition at 10 µM: at 1×10^-5 M, figure in parentheses, read-out: percent inhibition C1r. How it is done: (§2) The anti-C1 esterase (C1r, C1s) activity was determined according to the method of Okamura et al. [K. Okamura, M. Muramatsu and B. Fujii, Biochem. Biophys. Acta, 295, 252-257 (1973)]. The inhibition of complement mediated hemolysis was determined according to the method of Baker et al. [B. R. Baker and E. H. Erickson, J. Med. Chem., 12, 408-414 (1969)]. The figures in Table 2 have the following meanings:
C1r: Molar concentration of the test compound which inhibits 50% of the ability of C1r to hydrolyse AAME (acetylarginin methyl ester) (ID50).

The target in experiment [6] is T3, C1s (Homo sapiens, UniProt P09871).
T3 sequence (P09871 438-688 limits assumed): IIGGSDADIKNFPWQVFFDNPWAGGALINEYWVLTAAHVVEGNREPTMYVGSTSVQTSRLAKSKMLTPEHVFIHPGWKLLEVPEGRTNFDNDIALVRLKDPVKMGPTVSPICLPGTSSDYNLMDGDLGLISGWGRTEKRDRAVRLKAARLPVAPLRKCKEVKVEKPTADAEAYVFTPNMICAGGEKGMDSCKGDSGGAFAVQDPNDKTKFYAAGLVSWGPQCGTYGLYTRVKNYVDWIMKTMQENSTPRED
T3 sequence (P09871 16-437 limits assumed): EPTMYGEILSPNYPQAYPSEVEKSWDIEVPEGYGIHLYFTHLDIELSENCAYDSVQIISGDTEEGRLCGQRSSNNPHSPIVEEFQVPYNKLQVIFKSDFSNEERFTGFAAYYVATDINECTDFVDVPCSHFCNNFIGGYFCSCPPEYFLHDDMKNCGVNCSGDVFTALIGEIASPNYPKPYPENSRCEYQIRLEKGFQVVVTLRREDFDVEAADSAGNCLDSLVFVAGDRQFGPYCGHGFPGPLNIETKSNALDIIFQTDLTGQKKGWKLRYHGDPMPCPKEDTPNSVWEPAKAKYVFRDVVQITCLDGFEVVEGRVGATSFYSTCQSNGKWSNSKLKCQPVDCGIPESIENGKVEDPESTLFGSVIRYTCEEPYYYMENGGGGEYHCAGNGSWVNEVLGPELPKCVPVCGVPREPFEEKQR
The experiment in a line: anti-C1 esterase (C1s) activity (hydrolysis of ATEE). In kind it is biochemical. The settings on record: for inhibition at 10 µM: at 1×10^-5 M, figure in parentheses, read-out: percent inhibition C1s; for pIC50: ATEE hydrolysis, read-out: ID50 C1s. The procedure: as §2
C1s: Molar concentration of the test compound which inhibits 50% of the ability of C1s to hydrolyse ATEE (acetyltyrosin ethyl ester) (ID50).

For experiment [7], the system named is complement mediated hemolysis. The experiment is described as follows: inhibition of complement mediated hemolysis. In kind it is cell-based. How it is done:
The complement mediated hemolysis is widely used as a means to determine the titration of complement. The principle of this method is based on the fact that hemolysis is caused by the activation of complement, when the latter is added to a complex (immune complex) of erythrocytes and the antibody thereof. The degree of hemolysis varies in proportion to the amount of complement added. Therefore, when a known amount of complement admixed with a C1 esterase inhibitor is used, the hemolysis must be suppressed in proportion to the inhibitory activity.
as §2
Inhibition of complement mediated hemolysis (%): The inhibitory activity is shown in terms of percent inhibition of the compound at varied concentrations: […]

pIC50: −log10 of the molar value. Where two headings read alike, the source gives them in different places. Some results are limits rather than exact numbers.

`N=C(N)c1ccc2cc(OC(=O)c3ccc(Cn4ccnc4)cc3)ccc2c1` [compound 42]: the pIC50 in experiment [1] was 5.70; in experiment [2], 5.70; in experiment [3] it was 5.30. In experiment [4], the inhibition at 10 µM was 13%.
For `CN1c2ccccc2Sc2ccc(CC(=O)Oc3ccc4cc(C(=N)N)ccc4c3)cc21` [compound 61], the results for the pIC50 in experiment [1], in experiment [4] and in experiment [5] were 5.52, 5.52 and 5.70, respectively. For the same compound, the inhibition at 10 µM turned out to be 31% in experiment [2] and 16% in experiment [6]. The “percentage inhibition Kallikrein” value in experiment [3] worked out at 17%.
As for `N=C(N)c1ccc2cc(OC(=O)c3cccs3)ccc2c1` [compound 22], the pIC50 in experiment [1] was 6.70; in experiment [2], 6.52; in experiment [3], 5.70; in experiment [4] (TAME hydrolysis), 6.70; in experiment [5], 7.15; in experiment [6], 6.52. For the same compound, the “Inhibition of complement mediated hemolysis” value in experiment [7] (1 × 10^-4) was found to be 100%; in experiment [7] (1 × 10^-5), 96%; in experiment [7] (1 × 10^-6), 58%; in experiment [7] (1 × 10^-7), 34%.
Take `COc1ccc2c(c1)c(CC(=O)Oc1ccc3cc(C(=N)N)ccc3c1)c(C)n2C(=O)c1ccc(Cl)cc1` [compound 35]: the pIC50 was 9.00 in experiment [1]; 7.00 in experiment [2]; 5.00 in experiment [3]; 7.05 in experiment [4] (TAME hydrolysis); 6.40 in experiment [5]; 6.10 in experiment [6].
Regarding `N=C(N)c1ccc2cc(OC(=O)C=Cc3cccnc3)ccc2c1` [compound 50], the pIC50 in experiment [1] is 5.22; in experiment [2] it was 5.40; in experiment [5] it was 5.30. In experiment [3], the “percentage inhibition Kallikrein” value is “NE (the percentage inhibition is less than 10%)”. Besides, the inhibition at 10 µM in experiment [4] was 14%; in experiment [6], 18%.
With `COc1ccc2oc(C(=O)Oc3ccc4cc(C(=N)N)ccc4c3)cc2c1` [compound 17], the pIC50 in experiment [1] is 5.52; in experiment [2] it was 5.52; in experiment [4] (TAME hydrolysis), 5.70; in experiment [5] it was 5.40; in experiment [6], 5.22. Also, the “percentage inhibition Kallikrein” value in experiment [3] is given as “NE (the percentage inhibition is less than 10%)”. For the same compound, the “Inhibition of complement mediated hemolysis” value in experiment [7] (1 × 10^-4) is reported as 100%; in experiment [7] (1 × 10^-5) it was 100%; in experiment [7] (1 × 10^-6), 95%; in experiment [7] (1 × 10^-7), 90%.
Turning to `N=C(N)c1ccc2cc(OC(=O)c3ccco3)ccc2c1` [compound 3], the pIC50 in experiment [1] was 6.40; in experiment [2], 6.00; in experiment [4] (TAME hydrolysis) it was 6.40; in experiment [5], 6.30; in experiment [6] it was 5.40. Besides, in experiment [3], the “percentage inhibition Kallikrein” value is recorded as “NE (the percentage inhibition is less than 10%)”. Also, the “Inhibition of complement mediated hemolysis” value in experiment [7] (1 × 10^-4), in experiment [7] (1 × 10^-5), in experiment [7] (1 × 10^-6) and in experiment [7] (1 × 10^-7) was 100% throughout.
As for `N=C(N)c1ccc2cc(OC(=O)C=Cc3c[nH]c4ccccc34)ccc2c1` [compound 38], the pIC50 in experiment [1] was 5.05; in experiment [2], 6.10; in experiment [6], 6.22. In experiment [3], the “percentage inhibition Kallikrein” value came out at 17%. Also, the inhibition at 10 µM in experiment [4] amounted to 11%; in experiment [5] it was 42%.
`N=C(N)c1ccc2cc(OC(=O)c3ccc4ccccc4n3)ccc2c1` [compound 52]: the figures for the inhibition at 10 µM in experiment [5] and in experiment [6] were 29% and below 10%, respectively. For the same compound, the “Inhibition of complement mediated hemolysis” value in experiment [7] (1 × 10^-4) was 100%; in experiment [7] (1 × 10^-5), 97%; in experiment [7] (1 × 10^-6), 99%; in experiment [7] (1 × 10^-7), 97%.
For `N=C(N)c1ccc2cc(OC(=O)C3CCNCC3)ccc2c1` [compound 64], the inhibition at 10 µM in experiment [5] came out at 45%. For the same compound, in experiment [6], the pIC50 was 5.15.
In the case of `N=C(N)c1ccc2cc(OC(=O)c3ccc(CO)o3)ccc2c1` [compound 8], the pIC50 was 6.40 in experiment [1]; 5.70 in experiment [2]; 5.40 in experiment [3]; 6.22 in experiment [4] (TAME hydrolysis); 5.40 in experiment [6]. For the same compound, the “Inhibition of complement mediated hemolysis” value in experiment [7] (1 × 10^-4) is reported as 100%; in experiment [7] (1 × 10^-5), 100%; in experiment [7] (1 × 10^-6), 97%; in experiment [7] (1 × 10^-7), 92%.
For `COc1ccc2[nH]c(C(=O)Oc3ccc4cc(C(=N)N)ccc4c3)cc2c1` [compound 33], the pIC50 in experiment [1] is 6.70; in experiment [2] it was 5.70; in experiment [3] it was 5.00; in experiment [5] it was 5.70; in experiment [6], 5.70. In experiment [4], the inhibition at 10 µM is 40%.
Regarding `N=C(N)c1ccc2cc(OC(=O)C3CCN(C(=O)OCc4ccccc4)CC3)ccc2c1` [compound 55], the pIC50 in experiment [1] was 7.22; in experiment [2], 5.52; in experiment [3], 5.70; in experiment [5], 5.52; in experiment [6] it was 6.40. Moreover, the inhibition at 10 µM in experiment [4] worked out at 41%.
In the case of `N=C(N)c1ccc2cc(OC(=O)c3ccc4[nH]cnc4c3)ccc2c1` [compound 43], the pIC50 in experiment [1] is 7.00; in experiment [5], 6.52; in experiment [6] it was 6.30. In addition, the inhibition at 10 µM turned out to be 31% in experiment [2] and 46% in experiment [4]. Also, the “percentage inhibition Kallikrein” value in experiment [3] amounted to 41%.

These data come from patent US4634783A, “Novel amidine compound” (Torii & Co. Ltd., priority 1983, dated 1987).
